pEC50: −log10 of the molar value.

One data set deals with HIV-1 (IIIB) in MT-4 cells. Briefly: microbe, parasite or virus in culture. The settings on record: Human immunodeficiency virus 1, IIIB, MT4, MT-4 cells. Format: cell-based.
For `CC(C)(C)C[C@]1(c2ccc(-c3cnn(C(F)F)c3)cc2)NC(=N)N([C@H](COC(=O)NC2CC2)c2ccc(Cl)c(-c3nccc(=O)[nH]3)c2)C1=O` [Compound 17], the pEC50 was 6.25.

In turn, `CC(C)(C)C[C@]1(c2ccc(-c3cnn(C(F)F)c3)cc2)NC(=N)N([C@H](COC(=O)NC(C)(C)C(F)F)c2ccc(F)c(-c3ncnn3C(F)F)c2)C1=O` [Compound 124] showed a pEC50 of 7.19.

`CC(C)(C)C[C@]1(c2ccc(-c3cnn(C4CC4)c3)cc2)NC(=N)N([C@H](COC(=O)NC2(C(F)(F)F)CC2)c2ccc(Cl)c(-c3ncnn3C(F)F)c2)C1=O` [Compound 164] gave a pEC50 of 7.78.

On to `CC(C)(C)C[C@]1(c2ccc(-c3cn(C4CC4)nn3)cc2)NC(=N)N([C@H](COC(=O)NC2(C(F)(F)F)CC2)c2ccc(Cl)c(-n3ncnc3C(F)F)c2)C1=O` [Compound 232], for which the pEC50 is 7.74.

Consider `CC(C)(C)C[C@]1(c2ccc3ncc(Br)cc3c2)NC(=N)N([C@H](COC(=O)NC(C)(C)C(F)F)c2ccc(Cl)c(-n3ncnc3C(F)F)c2)C1=O` [Compound 327], for which the pEC50 is 7.51.

For `CC(C)(C#N)C[C@]1(c2ccc(-c3cnn(C(F)F)c3)cc2)NC(=N)N([C@H](COC(=O)NC2(C(F)(F)F)CC2)c2ccc(Cl)c(-n3ncnc3C(F)F)c2)C1=O` [Compound 336], the pEC50 was 7.13.

For `CC(C)(CC#N)C[C@]1(c2ccc(-c3cnn(C4CC4)n3)cc2)NC(=N)N([C@H](COC(=O)NC2(C(F)(F)F)CC2)c2ccc(Cl)c(-n3ncnc3C(F)F)c2)C1=O` [Compound 362], the pEC50 was 7.44.

For the molecule `CC(C)(C)C[C@]1(c2ccc(-c3cnn(C(C)(C)C)n3)cc2)NC(=N)N([C@H](COC(=O)NC2(C(F)(F)F)CC2)c2ccc(Cl)c(-n3ncnc3C(F)F)c2)C1=O` [Compound 371], the pEC50 is 7.57.

`CC(C)(C)C[C@]1(c2ccc(-c3cnn(C(F)F)c3)cc2)NC(=N)N([C@H](COC(=O)NC2(C(F)(F)F)CC2)c2ccc(-n3ncnc3C(F)F)c(F)c2)C1=O` [Compound 379] showed a pEC50 of 6.87.

Turning to `CC(C)(C)C[C@]1(c2ccc(-c3cnn(C(F)F)c3)cc2)NC(=N)N([C@H](COC(=O)NC2(C(F)(F)F)CC2)c2ccc(F)c(-n3ncnc3C(F)F)c2)C1=O` [Compound 380], the pEC50 was 7.53.

Staying with this data set, now noted: MT-4 cells; read-out: MT4 EC50.
As to `[H]/N=C1\N[C@](CC(C)(C)C)(c2ccc(-c3cnn(C(F)F)c3)cc2F)C(=O)N1[C@H](COC(=O)NC1CC1)c1ccc(Cl)c(-c2ncn[nH]2)c1` [Compound 11], the pEC50 was 7.45.

As for `CC(C)(C)C[C@]1(c2ccc(-c3cnccn3)cc2)NC(=N)N([C@H](COC(=O)NC2(C(F)(F)F)CC2)c2ccc(Cl)c(-c3ncn[nH]3)c2)C1=O` [Compound 26], the pEC50 is 6.99.

With `CC(C)(C)C[C@]1(c2ccc(-c3cnn(C(F)F)c3)c(F)c2)NC(=N)N([C@H](COC(=O)NCC(C)(F)F)c2ccc(Cl)c(-n3ncnc3C(F)F)c2)C1=O` [Compound 299], the pEC50 was 7.89.

Test system in another data set: not listed separately
Put plainly: Liver microsomal stability, human. Format: in vitro ADME. The settings on record: liver microsomes, read-out: Half-lives. On the procedure: Test compounds and one control compound (verapamil) were tested in 3 different species in duplicate sets.
Test compound concentration: 1 uM; Protein concentration: 0.5 mg/mL (for dog, rat, and human liver microsomes); Cofactor: NADPH-Regenerating system (NRS) solution; Time-points: 2, 12, 25, 45, and 65 minutes.
Reaction Composition (in Each Incubation Well) Contains:
At an incubation temperature of 37° C., the reaction was started with addition of NADPH Regeneration System, at each time point, 25 uL of the reaction mixture was removed and added to a plate with 225 uL quenching solution (50% MeOH, 25% ACN, 25% H2O, and 200 nM labetalol as internal standard). After plates were vortexed, they were centrifuged for 30 minutes to remove proteins. About 100 μL supernatant was removed to a new plate and diluted with 150 μL water. About 20 μL of the mixture was injected into LC/MS/MS system to monitor the compound's response. In vitro measured t½ was used to calculate Clint values.
A general note: Liver microsomes are vesicles of endoplasmic reticulum, rich in cytochrome P450 enzymes.
Consider `CC(C)(C)C[C@]1(c2ccc(-c3cnn(C(F)F)c3)cc2)NC(=N)N([C@H](COC(=O)N[C@@H]2C[C@H]2C(F)(F)F)c2ccc(Cl)c(-n3ncnc3C(F)F)c2)C1=O` (single isomer, unassigned) [Compound 331], for which the half-life at 1 uM is not below 6.58 h.

On to `CC(C)(C)C[C@]1(c2ccc(-c3cnn(C(F)F)c3)cc2)NC(=N)N([C@H](COC(=O)NC2CC2)c2ccc(Cl)c(-c3nccc(=O)[nH]3)c2)C1=O` [Compound 17], for which the half-life at 1 uM was not below 6.58 h.

For the molecule `CC(C)(C#N)C[C@]1(c2ccc(-c3cnn(C(F)F)c3)cc2)NC(=N)N([C@H](COC(=O)NC2(C(F)(F)F)CC2)c2ccc(Cl)c(-n3ncnc3C(F)F)c2)C1=O` [Compound 336], the half-life at 1 uM was not below 6.58 h.

For the molecule `CC(C)(C)C[C@]1(c2ccc(-c3cnn(C(F)F)c3)cc2)NC(=N)N([C@H](COC(=O)NC2(C(F)(F)F)CC2)c2ccc(F)c(-n3ncnc3C(F)F)c2)C1=O` [Compound 380], the half-life at 1 uM was not below 6.58 h.

For the molecule `COC(=O)N[C@H](C(=O)N[C@@H](Cc1ccccc1)[C@@H](O)CN(Cc1ccc(-c2ccccn2)cc1)NC(=O)[C@@H](NC(=O)OC)C(C)(C)C)C(C)(C)C` [atazanavir, methyl N-[(2S)-1-[2-[(2S,3S)-2-hydroxy-3-[[(2S)-2-(methoxycarbonylamino)-3,3-dimethylbutanoyl]amino]-4-phenylbutyl]-2-[(4-pyridin-2-ylphenyl)methyl]hydrazinyl]-3,3-dimethyl-1-oxobutan-2-yl]carbamate, reference compound], the half-life at 1 uM lay in the range of 0.433 to 1.78 h.

In general, pEC50 refers to the EC50 on a negative log10 scale, so that one unit is a factor of ten.

The values above are taken from patent publication US11352329B2, “HIV protease inhibitors” (Gilead Sciences, Inc., priority 2017, dated 2022).
